Test results from PubChem BioAssay AID1963432 (Molecular Pharmacology Branch, DTP, NCI, 2024).

Tested on: SYO-1 complex spheroid growth, percent test/control
Assay: Anticancer human tumor SYO-1 cell line growth inhibition [Asc];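 also: compound exposure lasted 7 days after spheroids grew 3 days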;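 as to viability, T/C: 100% = DMSO vehicle control viability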
Details: for IC50: curve of first compound; for viability, T/C: stronger effect = lower value
Description: Multicellular complex tumor spheroid response to apoptosis pathway targeting inhibitors Alrizomadlin, Pelcitoclax, and Dasminapant in combination with a variety of drugs and investigational agents in selected tumor cell lines
The MDM2 inhibitor alrizomadlin, the Bcl-2/Bcl-xL inhibitor pelcitoclax, and the IAPs inhibitor dasminapant were evaluated both individually and in combination with standard of care and investigational anticancer small molecules within a complex spheroid model of solid tumors. . Complex spheroids include a stromal component modeled by human endothelial cells (HUVEC) and fibroblasts modeled by human mesenchymal stem cells (MSCs). The concentration ranges selected for each drug and investigational agent were based upon clinically achievable concentrations if the clinical Cmax of the agent was known.
Compounds. The drugs and investigational agents: alrizomadlin (APG-115; NSC831270), pelcitoclax (APG-1252; NSC835773), dasminapant (APG-1387;NSC834197), TAK-243 (NSC785004), copanlisib (NSC809693), olaparib (NSC753686), talazoparib (NSC767125), cobimetinib (NSC 768068), eltanexor (KPT-8602, NSC 794443), abemaciclib (NSC 768073), sotorasib (NSC818433), adagrasib (NSC 831453), MRTX-1133 (NSC 836407), Iadademestat (ORY1001, NSC 806812), and RMC-4630 (NSC839698), were obtained from the NCI Developmental Therapeutics Program Chemical Repository. The FDA-approved anticancer drug set is available from the Developmental Therapeutics Program at https://dtp.cancer.gov/organization/dscb/obtaining/available plates.htm. […] The stock solutions were prepared in dimethyl sulfoxide (DMSO, Sigma-Aldrich, St. Louis, MO, cat. D2650) at 800-fold the tested concentration and stored at -70 degrees C prior to their use. All drugs and investigational agents were tested over a range starting from a high concentration at or near the clinical Cmax and decreasing in half-log increments. If the clinical Cmax for an agent had not been determined, the highest concentration tested was 10 microM.
The patient-derived cancer (PDC) cell lines include five colon adenocarcinomas: 186277-243-T-J2-PDC, 616215-338-R-J1-PDC, 439559-082-T-J2-PDC, 463943-066-T-J2-PDC, and 519858-162-T-J1-PDC; three pancreatic carcinomas: 323965-272-R-J2-PDC, 521955-158-R6-J3-PDC, and 521955-158-R2-J5-PDC; two uterine sarcomas: 327498-152-R-J2-PDC and 993429-296-R-J1-PDC; two rhabdomyosarcomas: 755483-174-R-J1-PDC and 772245-204-R-J1-PDC; two soft tissue sarcomas: 126254-015-R-J1-PDC and 494315-158-R-J1-PDC; two malignant fibrous histiocytomas: 317291-083-R-J1-PDC and 596521-263-R-J1-PDC; two breast carcinomas: 171881-019-R-J1-PDC and 885512-296-R-J2-PDC; and one ovarian carcinoma: 6556581-035-R-J-PDC were obtained from the NCI PDMR, (https://pdmr.cancer.gov). The established cell lines HSSY-2 synovial sarcoma (RRID:CVCL 8719), SYO-1 synovial sarcoma (RRID:CVCL_7146), MPNST malignant peripheral neural sheath tumor were obtained from the Sloan Kettering Institute. The following established cell lines were purchased from the American Type Culture Collection (ATCC, Manassas, VA), Sor the received from the NCI repository:, PANC-1 pancreatic carcinoma (CRL-1469, RRID:CVCL_0480), OVCAR-5 ovarian carcinoma (RRID:CVCL_1628), OVCAR-8 ovarian carcinoma (RRID:CVCL_1629), , MCF-7 breast carcinoma (CRL-12584, RRID:CVCL_0031), MDA-MB-231 breast carcinoma (CRL-12532, RRID:CVCL_0062), NCI-H1876 small cell lung carcinoma (CRL-5902, RRID:CVCL_1503), NCI-H510A small cell lung carcinoma (HTB-184, RRID:CVCL_1565), NCI-H1417 (CRL-5869, RRID:CVCL_1469), and NCI-H196 small cell lung carcinoma (CRL-5823, RRID:CVCL_1509). Dr. Peter Houghton (Greehey Children's Cancer Research Institute, University of Texas Health Science Center, San Antonio, TX) provided Rh-18 rhabdomyosarcoma (RRID:CVCL_1659). Pooled donor human umbilical vein endothelial cells (HUVEC, Lonza, cat. CC-2519) and human mesenchymal stem cells (hMSC, Lonza, cat. PT-2501) were purchased from Lonza (Walkersville, MD).
Cell Culture. […]

[1] = second compound 0.01 µM, first compound 0.00949 µM
[2] = second compound 0.01 µM, first compound 0.03 µM
[3] = second compound 0.01 µM, first compound 0.0949 µM
[4] = second compound 0.01 µM, first compound 0.3 µM
[5] = second compound 0.0316 µM, first compound 0.00949 µM
[6] = second compound 0.0316 µM, first compound 0.03 µM
[7] = second compound 0.0316 µM, first compound 0.0949 µM
[8] = second compound 0.0316 µM, first compound 0.3 µM
[9] = second compound 0.1 µM, first compound 0.00949 µM
[10] = second compound 0.1 µM, first compound 0.03 µM
[11] = second compound 0.1 µM, first compound 0.0949 µM
[12] = second compound 0.1 µM, first compound 0.3 µM
[13] = second compound 0.316 µM, first compound 0.00949 µM
[14] = second compound 0.316 µM, first compound 0.03 µM
[15] = second compound 0.316 µM, first compound 0.0949 µM
[16] = second compound 0.316 µM, first compound 0.3 µM
[17] = second compound 1 µM, first compound 0.00949 µM
[18] = second compound 1 µM, first compound 0.03 µM
[19] = second compound 1 µM, first compound 0.0949 µM
[20] = second compound 1 µM, first compound 0.3 µM

Row | Structure (SMILES) | IC50 (second compound 0.01 µM) [nM] | IC50 (second compound 0.0316 µM) [nM] | IC50 (second compound 0.1 µM) [nM] | IC50 (second compound 0.316 µM) [nM] | IC50 (second compound 1 µM) [nM] | viability, T/C [1] [%] | viability, T/C [2] [%] | viability, T/C [3] [%] | viability, T/C [4] [%] | viability, T/C [5] [%] | viability, T/C [6] [%] | viability, T/C [7] [%] | viability, T/C [8] [%] | viability, T/C [9] [%] | viability, T/C [10] [%] | viability, T/C [11] [%] | viability, T/C [12] [%] | viability, T/C [13] [%] | viability, T/C [14] [%] | viability, T/C [15] [%] | further results
1 | NC(=O)C(=Cn1cnc(-c2cc(C(F)(F)F)cc(C(F)(F)F)c2)n1)c1cncnc1 + CNC(C)C(=O)NC1CN(S(=O)(=O)c2cccc(S(=O)(=O)N3CCC4CCC(C(=O)NC(c5ccccc5)c5ccccc5)N4C(=O)C(NC(=O)C(C)NC)C3)c2)CCC2CCC(C(=O)NC(c3ccccc3)c3ccccc3)N2C1=O | 281 | 290 | 260 | 238 | 199 | 111 | 104 | 98 | 47.1 | 106 | 108 | 102 | 48.4 | 102 | 97.6 | 102 | 42.6 | 111 | 105 | 105 | viability, T/C (second compound 0.01 µM, first compound 0.000949 µM): 102%; viability, T/C (second compound 0.01 µM, first compound 0.003 µM): 101%; viability, T/C (second compound 0.0316 µM, first compound 0.000949 µM): 99.2%; viability, T/C (second compound 0.0316 µM, first compound 0.003 µM): 105%; viability, T/C (second compound 0.1 µM, first compound 0.000949 µM): 109%; viability, T/C (second compound 0.1 µM, first compound 0.003 µM): 106%; viability, T/C (second compound 0.316 µM, first compound 0.000949 µM): 103%; viability, T/C (second compound 0.316 µM, first compound 0.003 µM): 110%; viability, T/C [16]: 36.3%; viability, T/C (second compound 1 µM, first compound 0.000949 µM): 114%; viability, T/C (second compound 1 µM, first compound 0.003 µM): 106%; viability, T/C [17]: 111%; viability, T/C [18]: 105%; viability, T/C [19]: 97.5%; viability, T/C [20]: 23.6%
2 | CCN1C(C(=O)NC23CCC(C(=O)O)(CC2)CC3)C(c2cccc(Cl)c2F)C2(C(=O)Nc3cc(Cl)ccc32)C12CCCCC2 (stereo not given) + CNC(C)C(=O)NC1CN(S(=O)(=O)c2cccc(S(=O)(=O)N3CCC4CCC(C(=O)NC(c5ccccc5)c5ccccc5)N4C(=O)C(NC(=O)C(C)NC)C3)c2)CCC2CCC(C(=O)NC(c3ccccc3)c3ccccc3)N2C1=O | 146 | 120 | 110 | 115 | 94.9 | 104 | 95 | 71.8 | 13.8 | 98.9 | 96.6 | 60.3 | 9.46 | 99.2 | 90.2 | 56.5 | 10.5 | 102 | 89.8 | 59.6 | viability, T/C (second compound 0.01 µM, first compound 0.949 µM): 1.75%; viability, T/C (second compound 0.01 µM, first compound 3 µM): 0.88%; viability, T/C (second compound 0.0316 µM, first compound 0.949 µM): 1.09%; viability, T/C (second compound 0.0316 µM, first compound 3 µM): 0.76%; viability, T/C (second compound 0.1 µM, first compound 0.949 µM): 0.93%; viability, T/C (second compound 0.1 µM, first compound 3 µM): 0.63%; viability, T/C [16]: 8.45%; viability, T/C (second compound 0.316 µM, first compound 0.949 µM): 0.85%; viability, T/C (second compound 0.316 µM, first compound 3 µM): 0.95%; viability, T/C [17]: 112%; viability, T/C [18]: 88.9%; viability, T/C [19]: 54.7%; viability, T/C [20]: 5.93%; viability, T/C (second compound 1 µM, first compound 0.949 µM): 0.81%; viability, T/C (second compound 1 µM, first compound 3 µM): 0.72%
